Article PMC6367708 (Journal of medicinal chemistry, 2018)

How the values were obtained:
CYP17A1 [1] = target: T1, CYP17A1 (Homo sapiens, UniProt P05093); assay: Inhibition of CYP17A1-mediated progesterone 17α-hydroxylation; assay type: biochemical; settings: for increase in IC50 for CYP17A1: relative to abiraterone
T1 sequence (P05093 with tags, fused parts or gaps limits assumed): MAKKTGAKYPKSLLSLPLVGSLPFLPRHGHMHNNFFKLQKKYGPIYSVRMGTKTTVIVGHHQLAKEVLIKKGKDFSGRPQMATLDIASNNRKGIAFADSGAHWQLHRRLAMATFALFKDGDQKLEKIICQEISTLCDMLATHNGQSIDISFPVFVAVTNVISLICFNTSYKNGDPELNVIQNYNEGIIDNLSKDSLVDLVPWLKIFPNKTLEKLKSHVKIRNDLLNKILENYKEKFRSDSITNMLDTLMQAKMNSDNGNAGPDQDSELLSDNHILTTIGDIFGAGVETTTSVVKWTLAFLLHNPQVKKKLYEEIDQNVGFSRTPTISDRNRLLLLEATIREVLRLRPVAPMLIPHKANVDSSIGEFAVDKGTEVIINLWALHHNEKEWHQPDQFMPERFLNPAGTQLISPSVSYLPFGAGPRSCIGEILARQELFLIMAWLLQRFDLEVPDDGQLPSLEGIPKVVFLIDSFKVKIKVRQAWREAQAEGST

CYP21A2 [2] = target: T2, CYP21A2 (Homo sapiens, UniProt P08686); assay: Inhibition of CYP21A2-mediated progesterone 21-hydroxylation; assay type: biochemical
T2 sequence (P08686 with tags, fused parts or gaps): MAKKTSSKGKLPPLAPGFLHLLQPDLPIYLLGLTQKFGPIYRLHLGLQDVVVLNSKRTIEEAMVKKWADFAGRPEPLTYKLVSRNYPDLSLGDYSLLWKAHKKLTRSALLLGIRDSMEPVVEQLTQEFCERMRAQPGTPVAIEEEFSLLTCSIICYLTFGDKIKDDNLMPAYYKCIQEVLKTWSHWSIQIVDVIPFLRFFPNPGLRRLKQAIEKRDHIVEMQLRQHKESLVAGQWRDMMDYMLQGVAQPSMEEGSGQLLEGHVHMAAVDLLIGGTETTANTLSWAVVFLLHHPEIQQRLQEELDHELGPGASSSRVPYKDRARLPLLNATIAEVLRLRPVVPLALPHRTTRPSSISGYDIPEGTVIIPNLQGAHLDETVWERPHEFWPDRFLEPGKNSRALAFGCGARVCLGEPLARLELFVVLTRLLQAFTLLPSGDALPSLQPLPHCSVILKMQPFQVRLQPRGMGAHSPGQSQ

CYP17A1 [3] = target: T1, CYP17A1; settings: reported; cited from earlier work
CYP21A2 [4] = assay: Inhibition of CYP21A2-mediated progesterone 21-hydroxylation; assay type: biochemical, human

For `C[C@]12CC[C@H](O)CC1=CC[C@@H]1[C@@H]2CC[C@]2(C)C(c3ccccc3)=CC[C@@H]12` [3b, 17-Phenylandrosta-5,16-dien-3β-ol], the “increase in IC50 for CYP17A1” value (CYP17A1 [1]) was “more than 4,000 fold” and the “increase in IC50 for CYP21A2” value (CYP21A2 [2]; relative to abiraterone) was > 20 fold.

Work on `C[C@]12CC[C@H]3[C@@H](C[C@@H]4O[C@@]45C[C@@H](O)CC[C@]35C)[C@@H]1CC=C2c1cccnc1` [6b, 5α,6α-Epoxy-17-(3-pyridyl)androst-16-en-3β-ol] yielded an IC50 (CYP17A1 [1]) of 7.83 ± 0.92 nM and an IC50 (CYP21A2 [2]) of 42.1 ± 8.5 nM.

With `C[C@]12CC[C@H](O)C[C@@H]1C(=NO)C[C@@H]1[C@@H]2CC[C@]2(C)C(c3cccnc3)=CC[C@@H]12` [13b, 3β-Hydroxy-17-(3-pyridyl)-5α-androst-16-en-6-one oxime] the IC50 (CYP17A1 [1]) was 16.5 ± 2.5 nM, the “increase in IC50 for CYP17A1” value (CYP17A1 [1]) was “ca. 3 fold” and the IC50 (CYP21A2 [2]) was 1390 ± 120 nM. The “increase in IC50 for CYP21A2” value (CYP21A2 [2]; relative to abiraterone) was 43 fold.

In the case of `C[C@]12CC[C@H](O)C[C@@H]1NC(=O)C[C@@H]1[C@@H]2CC[C@]2(C)C(c3cccnc3)=CC[C@@H]12` [14b, 6-Aza-7-oxo-17-(3-pyridyl)-B-homo-5α-androst-16-en-3β-ol], the “selectivity for CYP17A1 inhibition over CYP21A2 inhibition” value (CYP17A1 [1]; progesterone hydroxylation reactions) is reported as “ca. 16 fold”.

In the case of `C[C@]12CCC(=O)C=C1CC[C@@H]1[C@@H]2CC[C@]2(C)C(c3cccnc3)=CC[C@@H]12` [compound 4, 17-(3-Pyridyl)androsta-4,16-dien-3-one], the “inhibition of CYP17A1” value (CYP17A1 [3]) is given as “comparably to abiraterone itself”, the “decrease in the IC50 for CYP21A2” value (CYP21A2 [2]; relative to abiraterone) is given as 46 fold and the “selectivity for CYP21A2 over CYP17A1” value (CYP21A2 [4]) is given as 8.8 times.

In the case of `C[C@]12CC[C@H](O)CC1=C(C#N)C[C@@H]1[C@@H]2CC[C@]2(C)C(c3cccnc3)=CC[C@@H]12` [compound 7, 3β-Hydroxy-17-(3-pyridyl)androsta-5,16-dien-6-carbonitrile], the “increase in IC50 for CYP17A1” value (CYP17A1 [1]) is reported as 3 fold.

With `C[C@]12CC[C@H](O)CC1=C(C(N)=O)C[C@@H]1[C@@H]2CC[C@]2(C)C(c3cccnc3)=CC[C@@H]12` [compound 8, 3β-Hydroxy-17-(3-pyridyl)androsta-5,16-dien-6-carboxamide] the “increase in IC50 for CYP17A1” value (CYP17A1 [1]) was 4.6 fold and the “increase in IC50 for CYP21A2” value (CYP21A2 [2]; relative to abiraterone) was 20 fold.
